Assay results taken from EP4471048A1, “PEPTIDE INHIBITORS OF INTERLEUKIN-23 RECEPTOR” (Zealand Pharma A/S, priority 2023, dated 2024).

What was measured:
[1] = Peptide stability in simulated intestinal fluid (SIF); format: in vitro ADME; settings: 37 °C, porcine pancreatin
Method in brief: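 Peptides were incubated at 37 °C with gentle shaking in pH 6.8 potassium phosphate SIF containing porcine pancreatin (10 g/L). Supernatants were analysed by LC-HRMS. Percent remaining at each timepoint, including 4 h, was calculated relative to time zero from absolute peak areas.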

[2] = Peptide stability in simulated gastric fluid (SGF); format: in vitro ADME; settings: pig, simulated gastric fluid (SGF) with porcine pepsin (3.2 g/L), 37 °C, porcine pepsin; for remaining at 4 h, 10 µM: pH 1.2, 4 h
Method in brief: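 Peptide incubated at 37 °C with gentle shaking in SGF (NaCl, pH 1.2). Samples centrifuged, diluted and analysed by LC-HRMS; percent remaining at each timepoint from absolute peak areas relative to time zero, with 4 h as the reference point.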

## CC(C)C[C@]1(C)NC(=O)[C@H](Cc2ccc3ccccc3c2)NC(=O)[C@H](Cc2ccc(OCCN)cc2)NC(=O)[C@@H]2CCC(=O)N[C@H](CCCCNC(=O)CC[C@@H](C(=O)N[C@@H](CCN)C(=O)N[C@@H](Cc3cccnc3)C(N)=O)NC1=O)C(=O)N[C@@H]([C@@H](C)O)C(=O)N[C@@H](C(C)C)C(=O)N[C@@H](Cc1c[nH]c3ccccc13)C(=O)N[C@@H](CCC(N)=O)C(=O)N2 [Compound 1, [{d}K](1c)(6c)^†TVWQE(6c)[Y(2-aminoethoxy)][2-Nal][2-Me-Leu]E(1c)[Dab][3-(3-Pyridyl)-Ala]-[NH2]]
[1]; 10 µM, pH 6.8, 4 h
  SIF (% remaining 4 h): 0%
[1]; pig, pH 6.8, 1 h
  remaining at 1 h, 10 µM: 23%
[1]; pig, SAR tables, % peptide remaining, pH 6.8, 4 h, read-out: SIF (% after 4 h)
  remaining at 4 h, 10 µM: 0%
[2]; pH 1.2, 10 µM, pH 1.2, 1 h, read-out: SGF (% remaining 1 h)
  remaining at 1 h, 10 µM: 104%
[2]; pH 1.2, 10 µM, read-out: SGF (% remaining 4 h)
  remaining at 4 h, 10 µM: 97%
[2]; pH 1.2, SAR tables, % peptide remaining, 10 µM, read-out: SGF (% after 4 h)
  remaining at 4 h, 10 µM: 104%
